Experimental findings from patent publication US20220249538A1, “TREATMENT AGENT FOR SEX HORMONE-INSENSITIVE GREB1-POSITIVE TUMORS” (OSAKA UNIVERSITY, priority 2019, published 2022) are described below.

Holding throughout (assay type): cell-based, human
In data set [1] the test system is HepG2 cells. Kind of data set: mRNA (real-time PCR) and protein (lysate probing) expression in HepG2 cells. As to the method: Using RNAiMAX (Life Technologies/Thermo Fisher Scientific), HepG2 cells, Huh6 cells, Hep3B cells, JHH7 cells, and SKMEL28 cells were each transfected with each siRNA (10 nm). In experiments, the cells were used from 48 to 120 hours after transfection.
A general note: Quantitative PCR measures a nucleic acid by following its amplification.

Data set [2] deals with HepG2 cells. Description: Cell viability by propidium iodide and Hoechst33342 staining. Particulars: medium without Z-VAD, 0.1% FBS, 2 days; PI and Hoechst33342. As to the method: Further, HepG2 cells were transfected with control siRNA or siRNAs (GREB1 #1 siRNA and GREB1 #2 siRNA), cultured in media (caspase inhibitor Z-VAD was contained in one condition, and not contained in the other condition) containing 0.1% FBS for 2 days, stained with propidium iodide (PI, […]) and Hoechst33342 (nucleus), and the cell viability was evaluated.
Further, HepG2 cells transfected with control siRNA, GREB1 siRNA (GREB1 #2 siRNA), p15 siRNA, or siRNA of GREB1 (GREB1 #2 siRNA) and siRNA of p15 in combination were cultured in media (caspase inhibitor Z-VAD was contained in one condition, and not contained in the other condition) containing 0.1% FBS for 2 days, stained with propidium iodide (PI) and Hoechst33342, and the cell viability was calculated.

The subject of a further data set is Smad2/3. Kind of data set: Smad2/3 immunostaining and immunoprecipitation in HepG2 cells. As to the method: HepG2 cells (100 mm diameter dish) were lysed with 400 μl of a cell lysis buffer (10 mM Tris-HCl [pH 7.4], 140 mM NaCl, 5 mM EDTA, 1% NP40, 25 mM NaF, […], and 10 mM PMSF). The resulting lysate was immunoprecipitated with anti-Smad2/3 antibody, and the immunoprecipitates were probed with predetermined antibodies.
Further, HepG2 cells transfected with control siRNA or GREB1 #2 siRNA were cultured in the presence or absence of 10 ng/mL of TGFβ for 30 minutes. The cultured cells were fixed, and immunostained with anti-Smad2/3 antibody (see c of FIG. 8). Further, cell lysates of the cultured cells were immunoprecipitated with anti-Smad2/3 antibody. Next, the resulting cell lysates (Input) and immunoprecipitates (IP) were reacted with anti-Smad4 antibody or anti-Smad2/3 antibody (see d of FIG. 8). In addition, the cell lysates of the cultured cells were reacted with anti-GREB1 antibody, anti-phosphorylated Smad2/3 (pSmad2/3) antibody, or anti-Smad2/3 antibody (see e of FIG. 8).
Lysates of HepG2 cells transfected with control siRNA or GREB1 #2 siRNA were immunoprecipitated with anti-Smad2/3 antibody. Next, the resulting cell lysates (input) and immunoprecipitates (IP) were reacted with anti-p300 antibody, anti-GREB1 antibody, or anti-Smad2/3 antibody (see e of FIG. 7). […]

Data set [3] relates to PAI-1 gene locus (exon 2). Description: Chromatin immunoprecipitation with anti-acetylated histone 4 antibody, PAI-1 exon 2. Conditions: HepG2 cells; presence or absence of 10 ng/mL TGFβ for 30 minutes. On the procedure:
Confluent HepG2 cells in a 10 cm dish were stimulated in the presence or absence of 5 ng/ml of TGFβ1 for 3 hours. Thereafter, the cells were allowed to crosslink using 1% formaldehyde at room temperature for 10 minutes, and the crosslinking reaction was terminated with 0.125 M glycine. The cells were washed three times with cold PBS, and thereafter the cells were removed and collected. Further, the cells were sedimented by centrifugation, and lysed with a sodium dodecyl sulfate (SDS) lysis buffer (50 mM Tris/HCl [pH 8.0], 10 mM EDTA, and 0.5% SDS). The cell lysates were subjected to ultrasonication to shear DNA into DNA fragments having sizes of 200 to 1000 bp. Supernatant of the sheared chromatin was diluted with ChIP dilution buffer (16.7 mM Tris/HCl [pH 8.0], 167 mM NaCl, 1.2 mM EDTA, and 1.1% Triton X-100) containing a protease inhibitor and a phosphatase inhibitor, and precleared by adding salmon sperm DNA/protein A-agarose beads (Millipore, Billerica, Mass., USA). […]
Further, HepG2 cells transfected with control siRNA or GREB1 #2 siRNA were cultured in the presence or absence of 10 ng/mL of TGFβ for 30 minutes. […] Next, the exon 2 domain of PAI contained in the cell lysates (Input) and immunoprecipitates (IP) was analyzed by PCR using domain-specific primers.

Turning to “GREB1 #2 siRNA: siRNA against human GREB1; sense 5′-CCUCCUACAAAGCAAUAUUTT-3′ (SEQ ID NO: 6), antisense SEQ ID NO: 7 (antisense AAUAUUGCUUUGUAGGAGGTT; chemistry not given here)”, the “expression levels of PAI-1 and SNAIL2” value in the data set on HepG2 cells [1] (HepG2/GFP cells, real-time PCR, n=3) is given as “increased”. Also, in the data set with HepG2 cells [1] (HepG2/GFP-GREB1 cells (expression of GFP-GREB1)), the “PAI-1 and SNAIL2 phenotypes of GREB1 knockdown” value is given as “restored”. In addition, in the data set with HepG2 cells [1] (HepG2 cells, 0.1% FBS for 2 days, lysate probing), the “amounts of cleaved caspase 3 and PARP1” value is on record as “increased”. Also, the “expressions of β-catenin and Axin2” value in the data set on HepG2 cells [1] (HepG2 cells, GREB1 knockdown, lysate probing) was “no effect”. For the same substance, the “expressions of PRLR and XBP1 (ER signal target genes)” value in the data set with HepG2 cells [1] (HepG2 cells, GREB1 knockdown, real-time PCR) is “no effect”. For the same substance, the “expression of cell cycle regulators cyclinA, cyclinB, phosphorylated histone H3” value with HepG2 cells [1] (HepG2 cells, medium containing 1% FBS for 1 day, lysate probing) was “decreases”. For the same substance, in the data set on HepG2 cells [1] (HepG2 cells, presence or absence of TGFβ receptor inhibitor (ALK5 inhibitor)), the “increases in mRNA levels of PAI-1 and SNAIL2 by knockdown of GREB1” value is given as “TGFβ receptor signal dependent”. For the same substance, the “expressions of DLK1, AFP, and PEG3” value with HepG2 cells [1] (HepG2 cells, real-time PCR) was “significantly decreased”. In addition, the “decrease in expression of AFP by knockdown of GREB1” value with HepG2 cells [1] (Smad2/3 knockout HepG2 cells vs HepG2 cells, real-time PCR) was “restored”. Also, the “decrease in expression of DLK1 by knockdown of GREB1” value in the data set with HepG2 cells [1] (effect of Smad2/3 knockout in HepG2 cells) is given as “no effect”. Also, in the data set with HepG2 cells [2], the “cell death of HepG2 cells” value is recorded as “elevated cell death”. In addition, in the data set with Smad2/3 (10 ng/mL TGFβ for 30 minutes), the “TGFβ-dependent nuclear transport of Smad2/3, complex formation of Smad2/3 and Smad4, phosphorylation of Smad2/3” value is given as “no effect”. In addition, the “binding of Smad2/3 to p300” value with Smad2/3 (anti-Smad2/3 immunoprecipitation) is “increased”. For the same substance, the “amount of acetylated histone 4 in the PAI-1 gene locus (exon 2)” value in data set [3] is “increased”.
